In US11647776B2, “Extract, consumable product and method for enriching bioactive metabolite in an extract” (Brightseed, Inc., priority 2019, dated 2023):

Columns and labels:
[1] = tested on: red potatoes; assay: wounding combined with THT enzyme elicitors: N-trans-feruloyltyramine production in sliced red potatoes; design: species or system Solanum tuberosum; details: sliced red potatoes dipped in 1 mg/ml laminaran, 10 mg/ml inactivated cordy-gen fungi or 10 mg/ml live endomycorrhizal fungi; 4 or 8 days at room temperature; water control
Procedure: Red potatoes were sliced (i.e., wounded) and dipped into aqueous solutions of 10 mg/ml live endomycorrhizal fungi, 10 mg/ml inactivated cordy-gen fungi, or 1 mg/ml laminaran (polysaccharide from brown algae).
For this analysis, red potatoes were sliced to a standard thickness. Subsequently, the potato slices were dipped into solutions of 10 mg/ml live endomycorrhizal fungi, 10 mg/ml inactivated cordy-gen fungi (from Mycopia), 1 mg/ml laminaran (polysaccharide from brown algae) or water (control) The potato slices were loosely covered to allow for air flow and incubated for 4 or 8 days at room temperature.

[2] = tested on: red potatoes; assay: wounding combined with precursor exposure: N-trans-feruloyltyramine production in sliced red potatoes; design: species or system Solanum tuberosum; details: sliced red potatoes dipped in 400 μM tyramine or citric acid (pH ~4); for N-trans-feruloyltyramine production: 4 days at room temperature, water control
Procedure: Red potatoes were sliced (i.e., and boiled in water for 6 minutes or dipped into abiotic […]) aqueous solutions of 400 μM tyramine or citric acid (pH ˜4).
For this analysis, red potatoes were sliced to a standard thickness (¼ inch; two potatoes/time point). Subsequently, the potato slices were either boiled in water for 6 minutes, or dipped into aqueous solutions of 400 μM tyramine (as precursor) or citric acid (pH ˜4; as a preservative), or water (control). The potato slices were loosely covered to allow for air flow and incubated for 4 days at room temperature.

[3] = tested on: Solanum tuberosum; assay: wounding response of potato tubers (N-trans-feruloyltyramine production); details: wounded potatoes
Procedure: Thus, it was determined whether elevated levels tyramine containing hydroxycinnamic acid amides could be generated in situ by subjecting a plant to an abiotic stress, e.g., wounding. In particular, yellow tubers of Solanum tuberosum were wounded by wounding and production of N-trans-feruloyltyramine in the tuber was assessed 1, 5 and 9 days after wounding.

Compound | production of N-trans-feruloyltyramine in response to wounding [1] | browning of the wounded potato slices [2] | N-trans-feruloyltyramine production [2] | effect on the wounding response [3]
laminaran | substantially enhanced |  |  | 
O=C(O)CC(O)(CC(=O)O)C(=O)O [citric acid] |  | inhibited the browning pathway | little effect | 
NCCc1ccc(O)cc1 [tyramine] |  | further increased browning | could enhance | enhanced the wounding response
